The compounds below were run against Mucolipin-3 (Homo sapiens) (UniProt Q8TDD5) (assay: whole-cell currents from mucolipin-3 agonists – HEK293, whole-cell patch clamp, -80 mV, orthogonal assay, late-stage follow-up (AID 2694)). Details: HEK293 TRPML3, whole-cell patch clamp current; at 10 µM; stronger effect = lower value.
Mucolipin-3 (Homo sapiens), sequence (Q8TDD5 whole entry, looked up): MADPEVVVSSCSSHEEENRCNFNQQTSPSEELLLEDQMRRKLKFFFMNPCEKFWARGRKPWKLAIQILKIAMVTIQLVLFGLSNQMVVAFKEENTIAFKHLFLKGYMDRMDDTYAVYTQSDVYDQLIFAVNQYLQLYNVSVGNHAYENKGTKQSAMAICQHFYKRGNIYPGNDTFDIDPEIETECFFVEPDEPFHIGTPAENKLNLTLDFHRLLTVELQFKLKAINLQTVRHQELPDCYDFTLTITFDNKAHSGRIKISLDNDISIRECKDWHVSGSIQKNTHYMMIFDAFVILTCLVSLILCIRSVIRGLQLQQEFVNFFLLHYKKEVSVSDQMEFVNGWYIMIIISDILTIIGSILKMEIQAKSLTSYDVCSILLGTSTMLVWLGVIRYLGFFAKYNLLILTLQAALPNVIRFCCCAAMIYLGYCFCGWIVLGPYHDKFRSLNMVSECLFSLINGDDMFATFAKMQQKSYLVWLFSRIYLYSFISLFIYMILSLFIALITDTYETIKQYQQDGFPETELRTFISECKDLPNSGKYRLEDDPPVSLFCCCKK
Compound `Cc1ccc(S(=O)(=O)n2nccc2-c2c(-c3ccc(Cl)cc3)noc2C)cc1` has a current density at -80 mV of -0.14 nA/pF. For `CC1CCN(S(=O)(=O)c2ccc(C(C)C)cc2)CC1`, the current density at -80 mV was -0.02 nA/pF. In the case of `CCOc1ccc(S(=O)(=O)N2CCCCCC2)c2ccccc12`, the current density at -80 mV is reported as -0.19 nA/pF.
